Legend:
Conditions in all cases: Compound concentration 1000.0 nM
[1] = biological target: AP2-associated protein kinase 1 (Homo sapiens) (UniProt Q2M2I8)
[2] = tested on: Tyrosine-protein kinase ABL1 (Homo sapiens), P00519 [F317I]
[3] = tested on: Tyrosine-protein kinase ABL1 (Homo sapiens), P00519 [H396P]
[4] = tested on: Tyrosine-protein kinase ABL1 (Homo sapiens), P00519 [Y253F]
[5] = biological target: Tyrosine-protein kinase ABL1 (Homo sapiens) (UniProt P00519)
[6] = tested on: ALK tyrosine kinase receptor (Homo sapiens), Q9UM73 [C1156Y]
[7] = biological target: Serine/threonine-protein kinase BRSK1 (Homo sapiens) (UniProt Q8TDC3)
[8] = biological target: Calcium/calmodulin-dependent protein kinase kinase 1 (Homo sapiens) (UniProt Q8N5S9)
[9] = biological target: Calcium/calmodulin-dependent protein kinase kinase 2 (Homo sapiens) (UniProt Q96RR4)
[10] = biological target: Cyclin-dependent kinase 4 (Homo sapiens) (UniProt P11802)
[11] = biological target: Cyclin-dependent kinase-like 5 (Homo sapiens) (UniProt O76039)
[12] = biological target: Dual specificity protein kinase CLK2 (Homo sapiens) (UniProt P49760)
[13] = biological target: Ephrin type-A receptor 3 (Homo sapiens) (UniProt P29320)
[14] = biological target: Ephrin type-A receptor 5 (Homo sapiens) (UniProt P54756)
[15] = biological target: Ephrin type-B receptor 4 (Homo sapiens) (UniProt P54760)
[16] = biological target: Fibroblast growth factor receptor 1 (Homo sapiens) (UniProt P11362)
[17] = tested on: Fibroblast growth factor receptor 3 (Homo sapiens), P22607 [G697C]
[18] = biological target: Vascular endothelial growth factor receptor 3 (Homo sapiens) (UniProt P35916)
[19] = biological target: Glycogen synthase kinase-3 alpha (Homo sapiens) (UniProt P49840)
[20] = biological target: Serine/threonine-protein kinase haspin (Homo sapiens) (UniProt Q8TF76)
[21] = biological target: Mitogen-activated protein kinase kinase kinase kinase 1 (Homo sapiens) (UniProt Q92918)
[22] = biological target: Hormonally up-regulated neu tumor-associated kinase (Homo sapiens) (UniProt P57058)
[23] = biological target: Inhibitor of nuclear factor kappa-B kinase subunit alpha (Homo sapiens) (UniProt O15111)
[24] = tested on: Mast/stem cell growth factor receptor Kit (Homo sapiens), P10721 [V559D]
[25] = biological target: Serine/threonine-protein kinase LATS2 (Homo sapiens) (UniProt Q9NRM7)
[26] = biological target: Serine/threonine-protein kinase 10 (Homo sapiens) (UniProt O94804)
[27] = biological target: MAP kinase-activated protein kinase 5 (Homo sapiens) (UniProt Q8IW41)
[28] = biological target: Microtubule-associated serine/threonine-protein kinase 1 (Homo sapiens) (UniProt Q9Y2H9)
[29] = biological target: Dual specificity mitogen-activated protein kinase kinase 1 (Homo sapiens) (UniProt Q02750)
[30] = biological target: Dual specificity mitogen-activated protein kinase kinase 5 (Homo sapiens) (UniProt Q13163)
[31] = biological target: Serine/threonine-protein kinase MRCK alpha (Homo sapiens) (UniProt Q5VT25)
[32] = biological target: Serine/threonine-protein kinase 4 (Homo sapiens) (UniProt Q13043)
[33] = biological target: Serine/threonine-protein kinase 3 (Homo sapiens) (UniProt Q13188)
[34] = biological target: Serine/threonine-protein kinase Nek5 (Homo sapiens) (UniProt Q6P3R8)
[35] = biological target: Serine/threonine-protein kinase NIM1 (Homo sapiens) (UniProt Q8IY84)
[36] = biological target: Serine/threonine-protein kinase PAK 6 (Homo sapiens) (UniProt Q9NQU5)
[37] = biological target: Cyclin-dependent kinase 17 (Homo sapiens) (UniProt Q00537)
[38] = tested on: Phosphatidylinositol 4,5-bisphosphate 3-kinase catalytic subunit alpha isoform (Homo sapiens), P42336 [I800L]
[39] = biological target: Serine/threonine-protein kinase N1 (Homo sapiens) (UniProt Q16512)
[40] = biological target: Ribosomal protein S6 kinase alpha-1 (Homo sapiens) (UniProt Q15418)
[41] = biological target: Serine/threonine-protein kinase SBK1 (Homo sapiens) (UniProt Q52WX2)
[42] = biological target: STE20/SPS1-related proline-alanine-rich protein kinase (Homo sapiens) (UniProt Q9UEW8)
[43] = biological target: Tyrosine-protein kinase Tec (Homo sapiens) (UniProt P42680)
[44] = biological target: High affinity nerve growth factor receptor (Homo sapiens) (UniProt P04629)
[45] = biological target: Wee1-like protein kinase 2 (Homo sapiens) (UniProt P0C1S8)

Measured: residual activity

Serine/threonine-protein kinase 10 (Homo sapiens), sequence (O94804 whole entry, looked up): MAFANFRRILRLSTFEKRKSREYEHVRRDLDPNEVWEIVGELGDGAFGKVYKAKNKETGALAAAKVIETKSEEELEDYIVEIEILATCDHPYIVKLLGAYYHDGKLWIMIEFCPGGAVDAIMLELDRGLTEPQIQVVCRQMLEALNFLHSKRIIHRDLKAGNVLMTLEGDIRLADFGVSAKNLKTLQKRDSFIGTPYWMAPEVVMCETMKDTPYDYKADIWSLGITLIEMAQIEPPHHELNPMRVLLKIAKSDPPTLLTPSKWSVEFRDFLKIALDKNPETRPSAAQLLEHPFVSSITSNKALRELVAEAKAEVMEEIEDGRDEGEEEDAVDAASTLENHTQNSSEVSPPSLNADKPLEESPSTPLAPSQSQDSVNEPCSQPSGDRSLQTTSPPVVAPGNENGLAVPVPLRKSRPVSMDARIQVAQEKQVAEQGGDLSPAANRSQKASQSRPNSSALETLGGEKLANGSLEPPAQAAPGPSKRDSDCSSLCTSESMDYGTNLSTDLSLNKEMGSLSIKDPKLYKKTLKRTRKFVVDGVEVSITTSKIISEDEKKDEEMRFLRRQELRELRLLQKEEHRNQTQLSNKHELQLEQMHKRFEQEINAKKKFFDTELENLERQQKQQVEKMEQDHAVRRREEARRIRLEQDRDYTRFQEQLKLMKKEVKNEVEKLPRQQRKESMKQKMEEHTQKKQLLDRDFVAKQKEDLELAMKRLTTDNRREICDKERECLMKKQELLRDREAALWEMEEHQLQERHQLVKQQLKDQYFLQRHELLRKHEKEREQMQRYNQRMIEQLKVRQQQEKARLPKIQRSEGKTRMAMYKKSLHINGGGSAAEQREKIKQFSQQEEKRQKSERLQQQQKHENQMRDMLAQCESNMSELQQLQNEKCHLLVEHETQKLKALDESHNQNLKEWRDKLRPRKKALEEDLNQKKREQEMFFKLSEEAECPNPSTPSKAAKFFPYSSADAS
Vascular endothelial growth factor receptor 3 (Homo sapiens), sequence (P35916 whole entry): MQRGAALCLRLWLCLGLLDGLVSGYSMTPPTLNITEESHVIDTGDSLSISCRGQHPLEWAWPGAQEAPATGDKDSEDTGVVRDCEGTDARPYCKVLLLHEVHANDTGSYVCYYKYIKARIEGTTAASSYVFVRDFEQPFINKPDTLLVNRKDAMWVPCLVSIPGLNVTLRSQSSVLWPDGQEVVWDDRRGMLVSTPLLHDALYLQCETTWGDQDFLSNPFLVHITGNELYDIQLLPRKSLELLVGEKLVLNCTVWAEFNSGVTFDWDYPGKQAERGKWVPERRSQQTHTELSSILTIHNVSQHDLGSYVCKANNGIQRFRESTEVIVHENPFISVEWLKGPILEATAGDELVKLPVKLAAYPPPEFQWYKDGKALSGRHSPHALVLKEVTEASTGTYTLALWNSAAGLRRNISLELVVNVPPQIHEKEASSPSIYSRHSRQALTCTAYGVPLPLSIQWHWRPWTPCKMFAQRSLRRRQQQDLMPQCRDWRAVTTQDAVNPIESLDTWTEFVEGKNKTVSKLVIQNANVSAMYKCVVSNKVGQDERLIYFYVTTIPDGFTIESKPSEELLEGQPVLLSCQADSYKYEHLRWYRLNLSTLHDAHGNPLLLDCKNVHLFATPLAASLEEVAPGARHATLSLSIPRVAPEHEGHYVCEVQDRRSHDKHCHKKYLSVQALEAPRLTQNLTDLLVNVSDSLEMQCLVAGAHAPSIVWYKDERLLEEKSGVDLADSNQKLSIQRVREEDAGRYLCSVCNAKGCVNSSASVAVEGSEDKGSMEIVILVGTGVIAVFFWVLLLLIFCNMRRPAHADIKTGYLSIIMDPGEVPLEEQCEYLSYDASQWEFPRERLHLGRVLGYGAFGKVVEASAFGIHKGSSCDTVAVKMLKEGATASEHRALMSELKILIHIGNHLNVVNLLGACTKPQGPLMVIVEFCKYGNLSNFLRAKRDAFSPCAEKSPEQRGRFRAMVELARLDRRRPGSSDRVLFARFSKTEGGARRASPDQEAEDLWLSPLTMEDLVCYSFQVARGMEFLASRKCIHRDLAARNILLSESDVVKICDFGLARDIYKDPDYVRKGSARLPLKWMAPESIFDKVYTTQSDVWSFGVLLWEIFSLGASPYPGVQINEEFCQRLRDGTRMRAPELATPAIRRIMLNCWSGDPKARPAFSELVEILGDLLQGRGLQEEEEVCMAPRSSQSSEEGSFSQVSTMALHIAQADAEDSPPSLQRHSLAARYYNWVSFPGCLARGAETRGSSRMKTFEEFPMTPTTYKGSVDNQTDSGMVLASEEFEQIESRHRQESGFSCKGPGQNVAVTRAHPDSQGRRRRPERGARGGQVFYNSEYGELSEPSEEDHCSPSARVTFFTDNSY
Wee1-like protein kinase 2 (Homo sapiens), sequence (P0C1S8 whole entry, looked up): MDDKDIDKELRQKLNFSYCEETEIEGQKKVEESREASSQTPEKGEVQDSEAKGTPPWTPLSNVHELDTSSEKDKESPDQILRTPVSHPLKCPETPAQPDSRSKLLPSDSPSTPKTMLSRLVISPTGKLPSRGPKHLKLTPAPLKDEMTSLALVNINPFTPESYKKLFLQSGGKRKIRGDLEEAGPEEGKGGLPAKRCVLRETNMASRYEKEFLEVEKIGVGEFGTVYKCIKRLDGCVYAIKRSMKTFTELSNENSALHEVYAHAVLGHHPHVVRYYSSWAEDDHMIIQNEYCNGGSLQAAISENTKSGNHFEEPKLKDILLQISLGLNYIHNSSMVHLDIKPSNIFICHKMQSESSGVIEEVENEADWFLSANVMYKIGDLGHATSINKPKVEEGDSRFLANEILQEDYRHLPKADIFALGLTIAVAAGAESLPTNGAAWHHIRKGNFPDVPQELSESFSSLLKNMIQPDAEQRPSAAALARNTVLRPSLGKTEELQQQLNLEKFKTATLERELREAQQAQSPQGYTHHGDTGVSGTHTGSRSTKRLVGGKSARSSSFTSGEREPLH
Ribosomal protein S6 kinase alpha-1 (Homo sapiens), sequence (Q15418 whole entry): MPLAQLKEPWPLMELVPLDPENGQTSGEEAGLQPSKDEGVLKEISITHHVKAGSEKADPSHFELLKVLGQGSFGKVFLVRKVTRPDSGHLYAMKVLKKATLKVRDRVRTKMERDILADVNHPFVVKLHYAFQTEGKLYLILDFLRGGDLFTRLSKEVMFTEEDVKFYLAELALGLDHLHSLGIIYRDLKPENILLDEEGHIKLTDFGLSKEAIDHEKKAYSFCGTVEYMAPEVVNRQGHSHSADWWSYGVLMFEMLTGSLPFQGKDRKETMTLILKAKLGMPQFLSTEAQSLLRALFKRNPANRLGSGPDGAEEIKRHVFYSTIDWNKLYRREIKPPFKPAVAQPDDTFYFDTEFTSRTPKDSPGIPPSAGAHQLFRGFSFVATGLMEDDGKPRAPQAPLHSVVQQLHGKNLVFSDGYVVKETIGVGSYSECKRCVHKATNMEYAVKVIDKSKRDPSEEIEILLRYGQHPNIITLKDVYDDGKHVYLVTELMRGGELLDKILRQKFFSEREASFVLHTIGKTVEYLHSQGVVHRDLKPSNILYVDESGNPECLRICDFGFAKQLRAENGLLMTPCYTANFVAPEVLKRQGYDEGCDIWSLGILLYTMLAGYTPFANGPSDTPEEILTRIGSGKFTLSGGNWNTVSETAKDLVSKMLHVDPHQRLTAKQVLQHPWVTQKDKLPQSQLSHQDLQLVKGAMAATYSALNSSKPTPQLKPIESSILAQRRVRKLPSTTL
Glycogen synthase kinase-3 alpha (Homo sapiens), sequence (P49840 2-483 limits assumed): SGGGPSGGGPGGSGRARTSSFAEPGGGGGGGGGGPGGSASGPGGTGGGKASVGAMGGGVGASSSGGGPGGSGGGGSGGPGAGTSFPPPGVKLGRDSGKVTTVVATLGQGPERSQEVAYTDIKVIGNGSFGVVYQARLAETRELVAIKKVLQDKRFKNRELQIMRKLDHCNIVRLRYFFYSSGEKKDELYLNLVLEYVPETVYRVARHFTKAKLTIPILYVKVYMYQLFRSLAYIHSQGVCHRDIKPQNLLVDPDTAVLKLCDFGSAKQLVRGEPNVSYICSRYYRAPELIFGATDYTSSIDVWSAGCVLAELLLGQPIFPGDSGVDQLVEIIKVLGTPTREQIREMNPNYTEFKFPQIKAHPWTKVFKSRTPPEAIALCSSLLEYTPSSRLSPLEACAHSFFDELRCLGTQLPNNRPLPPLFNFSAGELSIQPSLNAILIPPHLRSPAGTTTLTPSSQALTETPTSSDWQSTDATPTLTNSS
Serine/threonine-protein kinase Nek5 (Homo sapiens), sequence (Q6P3R8 whole entry): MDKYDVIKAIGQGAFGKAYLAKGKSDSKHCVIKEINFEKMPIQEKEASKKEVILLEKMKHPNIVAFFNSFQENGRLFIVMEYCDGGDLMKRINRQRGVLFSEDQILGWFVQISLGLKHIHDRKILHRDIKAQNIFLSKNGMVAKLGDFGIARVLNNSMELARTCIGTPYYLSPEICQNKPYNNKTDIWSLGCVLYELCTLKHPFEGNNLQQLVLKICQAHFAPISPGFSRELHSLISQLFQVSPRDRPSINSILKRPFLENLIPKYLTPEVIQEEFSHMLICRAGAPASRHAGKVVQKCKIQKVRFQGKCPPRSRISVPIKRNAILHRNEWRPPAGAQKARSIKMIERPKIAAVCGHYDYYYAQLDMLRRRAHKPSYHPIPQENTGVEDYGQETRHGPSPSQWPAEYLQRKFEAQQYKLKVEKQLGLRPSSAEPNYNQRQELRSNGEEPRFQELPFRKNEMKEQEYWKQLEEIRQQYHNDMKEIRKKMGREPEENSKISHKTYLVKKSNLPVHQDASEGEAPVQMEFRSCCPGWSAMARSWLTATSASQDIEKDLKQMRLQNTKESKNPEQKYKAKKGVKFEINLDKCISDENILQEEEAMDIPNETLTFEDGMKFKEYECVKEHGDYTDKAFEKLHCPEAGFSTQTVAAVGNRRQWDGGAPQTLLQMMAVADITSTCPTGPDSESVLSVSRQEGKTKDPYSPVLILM

c1ccc(N2CCN(Cc3nc4ccccc4[nH]3)CC2)nc1 [ABT-724]
inactive: [1] 100% | [2] 100% | [3] 87% | [4] 100% | [5] 80% | [6] 100% | [7] 91% | [8] 98% | [9] 91% | [10] 100% | [11] 100% | [12] 89% | [13] 100% | [14] 100% | [15] 100% | [16] 100% | [17] 100% | [18] 100% | [19] 66% | [20] 100% | [21] 100% | [22] 100% | [23] 100% | [24] 100% | [25] 75% | [26] 100% | [27] 100% | [28] 65% | [29] 100% | [30] 83% | [31] 100% | [32] 100% | [33] 100% | [34] 100% | [35] 100% | [36] 100% | [37] 100% | [38] 78% | [39] 88% | [40] 100% | [41] 100% | [42] 100% | [43] 100% | [44] 100% | [45] 100%

CSc1cccnc1N1CCN(Cc2nc3ccccc3[nH]2)CC1 [A-769]
inactive: [1] 100% | [2] 100% | [3] 75% | [4] 76% | [5] 70% | [6] 93% | [7] 100% | [8] 100% | [9] 100% | [10] 84% | [11] 76% | [12] 100% | [13] 100% | [14] 100% | [15] 100% | [16] 100% | [17] 100% | [18] 100% | [19] 100% | [20] 100% | [21] 100% | [22] 100% | [23] 98% | [24] 96% | [25] 94% | [26] 87% | [27] 84% | [28] 100% | [29] 79% | [30] 72% | [31] 100% | [32] 85% | [33] 87% | [34] 100% | [35] 84% | [36] 100% | [37] 100% | [38] 77% | [39] 100% | [40] 100% | [41] 99% | [42] 100% | [43] 90% | [44] 85% | [45] 100%
